Experimental data from patent publication US5026848A, “Novel generation of heteroaryloxyalkyl heterocycles with antipicornaviruses activities” (Synphar Laboratories Incorporated, priority 1988, dated 1991).
≈ marks a conversion by molar mass, not a printed value.

Columns and labels:
Rhinovirus 1A = test: Anti-rhinovirus activity, cytopathic effect inhibition / neutral red dye uptake, type 1A; format: cell-based; details: Enterovirus, WI-38; Table I; WI38 cells, 33° C., 3-4 days; NA = Not active; read-out: MIC50 Rhinovirus 1A
Coxsacki-A9 = test: Activity against other picornaviruses, Coxsacki-A9; format: cell-based; details: Enterovirus, read-out: MIC 50 Cox. A9
Rhinovirus 86 = test: Anti-rhinovirus activity, cytopathic effect inhibition / neutral red dye uptake, type 86; format: cell-based; details: Enterovirus, WI-38; Table II; read-out: MIC 50 Rhinovirus Type 86
Rhinovirus 2 = test: Anti-rhinovirus activity, cytopathic effect inhibition / neutral red dye uptake, type 2; format: cell-based; details: Enterovirus, WI-38; Table II; one of seven commonest serotypes; read-out: MIC 50 Rhinovirus Type 2
Rhinovirus 29 = test: Anti-rhinovirus activity, cytopathic effect inhibition / neutral red dye uptake, type 29; format: cell-based; details: Enterovirus, WI-38; Table II; one of seven commonest serotypes; read-out: MIC 50 Rhinovirus Type 29
Rhinovirus 36 = test: Anti-rhinovirus activity, cytopathic effect inhibition / neutral red dye uptake, type 36; format: cell-based; details: Enterovirus, WI-38; Table II; read-out: MIC 50 Rhinovirus Type 36
Rhinovirus 15 = test: Anti-rhinovirus activity, cytopathic effect inhibition / neutral red dye uptake, type 15; format: cell-based; details: Enterovirus, WI-38; Table II; one of seven commonest serotypes; read-out: MIC 50 Rhinovirus Type 15
Rhinovirus 31 = test: Anti-rhinovirus activity, cytopathic effect inhibition / neutral red dye uptake, type 31; format: cell-based; details: Enterovirus, WI-38; Table II; one of seven commonest serotypes; read-out: MIC 50 Rhinovirus Type 31
Enterovirus serotypes = format: cell-based
Rhinovirus 17 = test: Anti-rhinovirus activity, cytopathic effect inhibition / neutral red dye uptake, type 17; format: cell-based; details: Enterovirus, WI-38; Table II; read-out: MIC 50 Rhinovirus Type 17
Coxsacki-A21 = test: Activity against other picornaviruses, Coxsacki-A21; format: cell-based; details: Enterovirus, read-out: MIC 50 Cox. A21
Coxsacki-B1 = test: Activity against other picornaviruses, Coxsacki-B1; format: cell-based; details: Enterovirus, read-out: MIC 50 Cox. B1
Rhinovirus 4 = test: Anti-rhinovirus activity, cytopathic effect inhibition / neutral red dye uptake, type 4; format: cell-based; details: Enterovirus, WI-38; Table II; one of seven commonest serotypes; read-out: MIC 50 Rhinovirus Type 4
Rhinovirus 56 = test: Anti-rhinovirus activity, cytopathic effect inhibition / neutral red dye uptake, type 56; format: cell-based; details: Enterovirus, WI-38; Table II; read-out: MIC 50 Rhinovirus Type 56
Rhinovirus 1B = test: Anti-rhinovirus activity, cytopathic effect inhibition / neutral red dye uptake, type 1B; format: cell-based; details: Enterovirus, WI-38; Table II; one of seven commonest serotypes; read-out: MIC 50 Rhinovirus Type 1B
Echo-7 = test: Activity against other picornaviruses, Echo-7; format: cell-based; details: Enterovirus, read-out: MIC 50 Echo 7
Echo-11 = test: Activity against other picornaviruses, Echo-11; format: cell-based; details: Enterovirus, read-out: MIC 50 Echo 11
Rhinovirus 44 = test: Anti-rhinovirus activity, cytopathic effect inhibition / neutral red dye uptake, type 44; format: cell-based; details: Enterovirus, WI-38; Table II; read-out: MIC 50 Rhinovirus Type 44
[1] = test system: 20 serotypes of rhinovirus; test: Anti-rhinovirus activity against a panel of 20 serotypes; details: Table II; numerator; denominator 20, but 10 for compound 8 and 6 for compound 30
HRV-1A and HRV-39 = test: Anti-rhinovirus activity against HRV-1A and HRV-39; details: in words
Rhinovirus 30 = test: Anti-rhinovirus activity, cytopathic effect inhibition / neutral red dye uptake, type 30; format: cell-based; details: Enterovirus, WI-38; Table II; read-out: MIC 50 Rhinovirus Type 30
Rhinovirus 39 = test: Anti-rhinovirus activity, cytopathic effect inhibition / neutral red dye uptake, type 39; format: cell-based; details: Enterovirus, WI-38; Table I; WI38 cells, 33° C., 3-4 days; read-out: MIC50 Rhinovirus 39
Rhinovirus 49 = test: Anti-rhinovirus activity, cytopathic effect inhibition / neutral red dye uptake, type 49; format: cell-based; details: Enterovirus, WI-38; Table II; read-out: MIC 50 Rhinovirus Type 49
Rhinovirus 23 = test: Anti-rhinovirus activity, cytopathic effect inhibition / neutral red dye uptake, type 23; format: cell-based; details: Enterovirus, WI-38; Table II; read-out: MIC 50 Rhinovirus Type 23
Rhinovirus 32 = test: Anti-rhinovirus activity, cytopathic effect inhibition / neutral red dye uptake, type 32; format: cell-based; details: Enterovirus, WI-38; Table II; read-out: MIC 50 Rhinovirus Type 32
Coxsacki-B4 = test: Activity against other picornaviruses, Coxsacki-B4; format: cell-based; details: Enterovirus, read-out: MIC 50 Cox. B4
Polio 1 = test: microbe, parasite or virus in culture; format: cell-based; details: Enterovirus, read-out: MIC 50 Polio 1
WI38 cells = test: Toxicity to WI38 cells (change in morphology in / growth inhibition of 25% of the cells); format: cell-based
Rhinovirus 88 = test: Anti-rhinovirus activity, cytopathic effect inhibition / neutral red dye uptake, type 88; format: cell-based; details: Enterovirus, WI-38; Table II; read-out: MIC 50 Rhinovirus Type 88
Rhinovirus 53 = test: Anti-rhinovirus activity, cytopathic effect inhibition / neutral red dye uptake, type 53; format: cell-based; details: Enterovirus, WI-38; Table II; read-out: MIC 50 Rhinovirus Type 53
Rhinovirus 63 = test: Anti-rhinovirus activity, cytopathic effect inhibition / neutral red dye uptake, type 63; format: cell-based; details: Enterovirus, WI-38; Table II; read-out: MIC 50 Rhinovirus Type 63

SMILES: c1ccc2c(c1)oc1ccc(OCCCCCCc3ccns3)cc12 [Compound 25]
- EC50 (Rhinovirus 1A): 10 µg/mL (≈ 28.5 µM)
- EC50 (Coxsacki-A9): 10 µg/mL (≈ 28.5 µM)
- EC50 (Rhinovirus 86): 10 µg/mL (≈ 28.5 µM)
- IC50 (Rhinovirus 2): 20 µg/mL (≈ 56.9 µM)
- IC50 (Rhinovirus 29): 5 µg/mL (≈ 14.2 µM)
- EC50 (Rhinovirus 36): > 25 µg/mL
- IC50 (Rhinovirus 15): 10 µg/mL (≈ 28.5 µM)
- EC50 (Rhinovirus 31): > 25 µg/mL
- inhibitory activity against the members of the Entero virus family (Enterovirus serotypes): remarkable inhibitory activity
- All Enterovirus Serotypes (number of serotypes active / tested) (Enterovirus serotypes; Table III, numerator, denominator 7, but 5 for compound 8): 4
- IC50 (Rhinovirus 17): 10 µg/mL (≈ 28.5 µM)
- IC50 (Coxsacki-A21): 5 µg/mL (≈ 14.2 µM)
- IC50 (Coxsacki-B1): > 25 µg/mL
- IC50 (Rhinovirus 4): > 25 µg/mL
- EC50 (Rhinovirus 56): 10 µg/mL (≈ 28.5 µM)
- IC50 (Rhinovirus 1B): 5 µg/mL (≈ 14.2 µM)
- IC50 (Echo-7): 5 µg/mL (≈ 14.2 µM)
- IC50 (Echo-11): > 25 µg/mL
- EC50 (Rhinovirus 44): 5 µg/mL (≈ 14.2 µM)
- All Rhinovirus Serotypes (number of serotypes active / tested) [1]: 16
- inhibitory activity against HRV-1A and HRV-39 in vitro (HRV-1A and HRV-39): remarkably inhibitory activity
- IC50 (Rhinovirus 30): 10 µg/mL (≈ 28.5 µM)
- EC50 (Rhinovirus 39): 5 µg/mL (≈ 14.2 µM)
- EC50 (Rhinovirus 49): > 25 µg/mL
- IC50 (Rhinovirus 23): 5 µg/mL (≈ 14.2 µM)
- EC50 (Rhinovirus 32): 10 µg/mL (≈ 28.5 µM)
- IC50 (Coxsacki-B4): > 25 µg/mL
- EC50 (Polio 1): 10 µg/mL (≈ 28.5 µM)
- Toxicity (WI38 cells; Table I, concentration with change in morphology in 25% of WI38 cells): 50 µg/mL
- Toxicity (WI38 cells; Table II): 50 µg/mL
- Toxicity (WI38 cells; Table III): 50 µg/mL
- EC50 (Rhinovirus 88): 10 µg/mL (≈ 28.5 µM)
- EC50 (Rhinovirus 53): 10 µg/mL (≈ 28.5 µM)
- EC50 (Rhinovirus 63): 5 µg/mL (≈ 14.2 µM)
